Measured values taken from patent US20030034248A1, “Electrodeposition baths containing boron-containing compounds and methods related thereto” (priority 2001, published 2003).

Tested on: bacteria
Assay: Bacteria resistance testing: bacteria counts (spread plate, R2A agar) in infected electrodeposition ultrafiltrate permeate
Assay type: cell-based
Conditions: for Bacteria Count 3 day: plated at 3 days; for Bacteria Count 7 day: plated at 7 days; for Bacteria Count 10 day: plated at 10 days
Method: Infected ultrafiltrate from an online electrodeposition bath tank (containing E6100H, commercially available from PPG Industries, Inc.) having a bacterial count of 4.5×10^6 cfu/mL was used to inoculate filter-sterilized ultrafiltrate (“permeate”) collected from the same line. The infected ultrafiltrate was diluted by a factor of 10^4 into the sterile permeate. The infected permeate was added to reactors. The various acids listed below in the following Table 2 were prepared as 1 % solutions in water and tested at 2000, 1000, 500, 200, 100, and 50 ppm of active material. Reactors were rolled for 10 days at 32° C. and were plated for bacteria counts at 3, 7, and 10 days.
The enumeration of […] heterotrophs in the reactors utilized the standard spread plate method as described in Standard Methods for the Examination of Water and Wastewater, 1992, section 9215C. Bacterial counts were examined using R2A agar plates. 100 μL of a suitable dilution of sample was pipetted onto the surface of the media and spread with an alcohol and flame sterilized glass rod. The plates were inverted and incubated for 3 days at 32° C. with periodic examination. Colony forming units were counted on a New Brunswick Bactronic Colony Counter. A target of 30 to 300 cfu per plate was considered a valid count.

[1] = acid at 50 ppm of active material (boric acid: 8.9 ppm B), 32° C.
[2] = acid at 100 ppm of active material (boric acid: 17.8 ppm B), 32° C.
[3] = acid at 200 ppm of active material (boric acid: 35.5 ppm B), 32° C.
[4] = acid at 500 ppm of active material (boric acid: 89 ppm B), 32° C.
[5] = acid at 1000 ppm of active material (boric acid: 177.5 ppm B), 32° C.
[6] = acid at 2000 ppm of active material (boric acid: 355 ppm B), reactors rolled at 32° C.

SMILES	Bacteria Count 3 day [1]	Bacteria Count 7 day [1]	Bacteria Count 10 day [1]	Bacteria Count 3 day [2]	Bacteria Count 7 day [2]	Bacteria Count 10 day [2]	Bacteria Count 3 day [3]	Bacteria Count 7 day [3]	Bacteria Count 10 day [3]	Bacteria Count 3 day [4]	Bacteria Count 7 day [4]	Bacteria Count 10 day [4]	Bacteria Count 3 day [5]	Bacteria Count 7 day [5]	Bacteria Count 10 day [5]	Bacteria Count 3 day [6]	Bacteria Count 7 day [6]	Bacteria Count 10 day [6]	levels at which the growth of bacteria is retarded (as compared to lactic acid in an analogous composition, summary of Table 2)
OB(O)O [Boric Acid]	8.8 × 10^2	4.6 × 10^6	4.0 × 10^3	3.0 × 10^2	5.6 × 10^5	1.4 × 10^7	3.6 × 10^2	2.8 × 10^3	2.0 × 10^6	<4.0 × 10^1	<4.0 × 10^1	<4.0 × 10^1	<4.0 × 10^1	<4.0 × 10^1	<4.0 × 10^1	<4.0 × 10^1	<4.0 × 10^1	<4.0 × 10^1	≥ 500 ppm
CC(O)C(=O)O (stereo not shown) [Lactic Acid, reference compound]	9.2 × 10^5	4.4 × 10^7	3.8 × 10^7	8.8 × 10^5	4.4 × 10^7	2.4 × 10^6	1.5 × 10^6	1.6 × 10^7	1.2 × 10^7	1.6 × 10^7	4.0 × 10^7	2.8 × 10^6	9.6 × 10^6	3.2 × 10^7	<4.0 × 10^5	2.1 × 10^6	4.8 × 10^7	1.1 × 10^7	–
